Experimental data: patent publication US8933130B2, “Treatment of vasomotor symptoms with selective estrogen receptor modulators” (Radius Health, Inc., priority 2006, dated 2015)

How the values were obtained:
[1] = test system: morphine-addicted ovariectomized rats; assay: Rodent model of hot flashes: tail skin temperature change after naloxone in morphine-addicted ovariectomized rats; assay type: in vivo, rat; settings: for Mean Tail Skin Temp.: tail skin temperature change after naloxone, ovariectomized rats, vehicle 5.6° C.
Method: The SERM, (R)-6-{2-{Ethyl[4-(2-ethylaminoethyl)benzyl]amino}-4-methoxyphenyl}-5,6,7,8-tetrahydronaphthalen-2-ol (“SERM A”), was evaluated for its ability to modulate vasomotor activity in a rodent model of hot flashes. (Merchenthaler, Maturitas, 1998 30:307-316). Briefly, ovariectomized adult rats were implanted with slow release morphine sulfate pellets on days 5 and 6 post-ovariectomy. Beginning at 4 days post-ovariectomy, once-daily treatment was initiated with a positive control, ethynyl estradiol (0.3 mg/kg), SERM A (1 and 10 mg/kg) or vehicle (95% corn oil, 5% DMSO by volume), delivered by subcutaneous injection. Treatment with the test agents was continued daily until the end of the study. On day 10, probes capable of continuously monitoring temperature were applied to the tail skin surface of the treated rats. The rats were then treated with naloxone, a morphine antagonist, and the change in skin temperature recorded for a period of 60 minutes.

[2] = test system: 19-day old Sprague-Dawley rats (uteri); assay: Antagonism of estradiol-mediated uterine stimulation: uterine wet weight in 19-day old rats; assay type: in vivo, rat; settings: SERM A 10, 3, 1, 0.3, 0.1, 0.03, 0.01 mg/kg combined with estradiol 0.01 mg/kg, s.c. once daily for three days; FIG. 3
Method: (§1) 19-day old Sprague-Dawley rats were treated with either vehicle (95% corn oil/5% DMSO), estradiol (0.01 mg/kg), or a combination of estradiol (0.01 mg/kg) and SERM A (10, 3, 1, 0.3, 0.1, 0.03, 0.01 mg/kg). The rats were dosed once daily by subcutaneous injection for three consecutive days. 24 hours after the last dose, the rats were euthanized, uteri were harvested and their wet weight recorded.

[3] = test system: 19-day old Sprague-Dawley rats (uteri); settings: rat, in vivo
Method: as §1, with “mg/kg), raloxifene (10 mg/kg), tamoxifen (1 mg/kg)” for “mg/kg),”, “or” for “or a combination of estradiol (0.01 mg/kg) and”, “(100, 30, 10,” for “(10,”, “or 0.3” for “0.3, 0.1, 0.03, 0.01”

Row | uterine stimulation at doses effective at modulating vasomotor response [3] | SMILES | increase in skin temperature after naloxone treatment, compared to vehicle ([1]; 0.3 mg/kg s.c. once daily) | Mean Tail Skin Temp. ([1]; 0.3 mg/kg once daily s.c.) | estradiol-mediated increase in uterine weight [2] | increase in skin temperature after naloxone treatment, compared to vehicle ([1]; 0.1 and 0.01 mg/kg) | increase in skin temperature after naloxone treatment, compared to vehicle ([1]; 1 or 10 mg/kg s.c. once daily) | elevation of tail skin temperature associated with morphine addiction withdrawal ([1]; morphine-addicted ovariectomized rats, FIG. 1) | activity on reducing tail skin temperature increase, compared with positive control ethynyl estradiol ([1]; statistical analysis, SERM A 1 and 10 mg/kg vs ethynyl estradiol 0.3 mg/kg) | Mean Tail Skin Temp. ([1]; 1 mg/kg once daily s.c.) | Mean Tail Skin Temp. ([1]; 10 mg/kg once daily s.c.)
1 | – | C#C[C@]1(O)CC[C@H]2[C@@H]3CCc4cc(O)ccc4[C@H]3CC[C@@]21C [Ethynyl estradiol, ethynyl estradiol, reference compound] | significantly reduced the increase in skin temperature | 1.2 °C | – | – | – | – | – | – | –
2 | lack of uterine stimulation | CCNCCc1ccc(CN(CC)c2cc(OC)ccc2[C@@H]2CCc3cc(O)ccc3C2)cc1 [SERM A, (R)-6-{2-{Ethyl[4-(2-ethylaminoethyl)benzyl]amino}-4-methoxyphenyl}-5,6,7,8-tetrahydronaphthalen-2-ol] | – | – | decreased the estradiol-mediated increase in a dosage dependent manner | did not significantly reduce the increase in skin temperature | significantly reduced the increase in skin temperature | suppressing the elevation of tail skin temperature | no significant difference | 2.1 °C | 2.0 °C
